Where “and” joins values, the source holds several entries; their conditions need not be identical. Equal values may be shown once.
Key:
[1] = molecular target: CHRM3 (Muscarinic acetylcholine Receptor M3) (Homo sapiens, UniProt P20309); experiment: cell-based
[2] = molecular target: CCKAR (Cholecystokinin Receptor A) (Homo sapiens, UniProt P32238); experiment: CCKAR/Calcium Flux; format: cell-based
[3] = molecular target: ADRB2 (Adrenergic Receptor β2) (Homo sapiens, UniProt P07550); experiment: ADRB2/cAMP; format: cell-based; conditions: EC50 (μM)
Chain of ADRB2 (Adrenergic Receptor β2) (P07550 whole entry): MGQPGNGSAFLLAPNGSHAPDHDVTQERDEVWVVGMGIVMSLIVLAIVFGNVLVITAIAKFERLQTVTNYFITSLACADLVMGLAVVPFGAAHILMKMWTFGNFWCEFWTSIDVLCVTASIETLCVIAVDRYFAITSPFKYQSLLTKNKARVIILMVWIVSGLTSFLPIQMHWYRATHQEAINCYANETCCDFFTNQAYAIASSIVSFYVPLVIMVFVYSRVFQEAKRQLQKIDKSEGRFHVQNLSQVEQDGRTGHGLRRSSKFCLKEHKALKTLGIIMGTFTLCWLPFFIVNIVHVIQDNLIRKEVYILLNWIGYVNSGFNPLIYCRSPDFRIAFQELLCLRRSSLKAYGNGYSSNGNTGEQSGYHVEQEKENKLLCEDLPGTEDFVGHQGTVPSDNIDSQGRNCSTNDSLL

[4] = molecular target: T1, NET (Norepinephrine transporter) (Homo sapiens, UniProt P23975); experiment: NET/Transporter (fluorescent substrate uptake); format: cell-based
T1 construct: expressed in transfected cells
T1 sequence (P23975 whole entry): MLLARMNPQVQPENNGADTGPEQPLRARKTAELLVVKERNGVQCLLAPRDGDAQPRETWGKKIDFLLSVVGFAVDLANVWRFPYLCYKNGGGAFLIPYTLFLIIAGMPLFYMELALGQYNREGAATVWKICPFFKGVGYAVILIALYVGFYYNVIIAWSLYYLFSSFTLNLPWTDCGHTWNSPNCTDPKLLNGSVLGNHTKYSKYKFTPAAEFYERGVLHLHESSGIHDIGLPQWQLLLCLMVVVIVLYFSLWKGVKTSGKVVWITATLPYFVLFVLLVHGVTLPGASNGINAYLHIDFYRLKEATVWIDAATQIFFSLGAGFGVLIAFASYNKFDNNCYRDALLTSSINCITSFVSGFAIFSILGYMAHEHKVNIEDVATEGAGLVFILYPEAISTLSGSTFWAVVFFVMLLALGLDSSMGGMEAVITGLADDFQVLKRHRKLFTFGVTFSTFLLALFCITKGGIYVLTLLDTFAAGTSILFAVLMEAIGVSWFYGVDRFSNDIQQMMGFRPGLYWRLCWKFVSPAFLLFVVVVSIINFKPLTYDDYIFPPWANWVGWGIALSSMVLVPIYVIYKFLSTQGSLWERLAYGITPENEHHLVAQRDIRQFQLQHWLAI

[5] = molecular target: T2, nAChR(a4/b2) (Nicotinic acetylcholine Receptor α4 β2) (Homo sapiens, UniProt P17787+P43681); experiment: cell-based; conditions: EC50 (μM)
T2 construct: expressed in transfected cells
T2 sequence (P43681 29-627 limits assumed): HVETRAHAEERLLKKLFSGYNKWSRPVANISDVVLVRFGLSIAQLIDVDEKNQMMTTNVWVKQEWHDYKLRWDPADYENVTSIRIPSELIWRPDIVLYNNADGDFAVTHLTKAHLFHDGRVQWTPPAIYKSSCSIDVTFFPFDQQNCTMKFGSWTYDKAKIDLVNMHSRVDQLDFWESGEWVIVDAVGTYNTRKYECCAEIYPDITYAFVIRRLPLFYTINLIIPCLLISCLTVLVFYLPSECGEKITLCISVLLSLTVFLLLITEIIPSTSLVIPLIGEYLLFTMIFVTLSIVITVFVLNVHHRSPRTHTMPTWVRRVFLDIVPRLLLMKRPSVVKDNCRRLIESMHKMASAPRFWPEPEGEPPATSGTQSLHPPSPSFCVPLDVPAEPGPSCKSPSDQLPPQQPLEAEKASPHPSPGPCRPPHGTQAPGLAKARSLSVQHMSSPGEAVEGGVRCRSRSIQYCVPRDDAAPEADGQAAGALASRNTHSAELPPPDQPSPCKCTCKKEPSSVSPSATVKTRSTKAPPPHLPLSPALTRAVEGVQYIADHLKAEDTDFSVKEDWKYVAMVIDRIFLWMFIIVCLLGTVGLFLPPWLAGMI
T2 sequence (P17787 26-502): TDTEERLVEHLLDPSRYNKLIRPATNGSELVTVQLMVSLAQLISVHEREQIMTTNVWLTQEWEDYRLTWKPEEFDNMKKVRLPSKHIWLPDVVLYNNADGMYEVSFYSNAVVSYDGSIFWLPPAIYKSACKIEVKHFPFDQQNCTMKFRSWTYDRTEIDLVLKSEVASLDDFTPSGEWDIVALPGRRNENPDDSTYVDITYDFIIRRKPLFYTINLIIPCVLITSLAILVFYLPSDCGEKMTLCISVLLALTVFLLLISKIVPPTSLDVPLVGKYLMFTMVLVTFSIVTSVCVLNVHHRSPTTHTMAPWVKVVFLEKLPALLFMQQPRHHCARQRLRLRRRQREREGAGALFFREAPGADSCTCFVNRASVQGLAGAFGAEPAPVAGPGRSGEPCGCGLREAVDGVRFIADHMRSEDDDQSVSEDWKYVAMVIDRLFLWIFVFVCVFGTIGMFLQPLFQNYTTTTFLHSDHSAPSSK

[6] = molecular target: 5-Hydroxytryptamine (Serotonin) Receptor 2A (5-HT2A) (Homo sapiens, UniProt P28223); experiment: 5-HT2A/Calcium Flux; format: cell-based; conditions: EC50 (μM)
Chain of 5-Hydroxytryptamine (Serotonin) Receptor 2A (5-HT2A) (P28223 whole entry, looked up): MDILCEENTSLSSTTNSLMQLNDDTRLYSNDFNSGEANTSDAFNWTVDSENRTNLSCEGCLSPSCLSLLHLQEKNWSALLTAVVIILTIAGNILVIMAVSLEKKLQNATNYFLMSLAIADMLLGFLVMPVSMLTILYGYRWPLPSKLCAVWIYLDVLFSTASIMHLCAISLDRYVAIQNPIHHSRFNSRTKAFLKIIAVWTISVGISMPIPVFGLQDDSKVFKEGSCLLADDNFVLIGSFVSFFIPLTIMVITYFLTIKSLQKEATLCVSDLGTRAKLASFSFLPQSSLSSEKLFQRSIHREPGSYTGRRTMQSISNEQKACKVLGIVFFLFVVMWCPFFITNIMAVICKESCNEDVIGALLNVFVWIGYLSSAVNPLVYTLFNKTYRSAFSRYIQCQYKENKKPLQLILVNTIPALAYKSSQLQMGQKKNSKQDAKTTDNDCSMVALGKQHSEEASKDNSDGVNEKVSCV

[7] = molecular target: T3, SERT (Serotonin transporter) (Homo sapiens, UniProt P31645); experiment: cell-based
T3 construct: expressed in transfected cells
T3 sequence (P31645 whole entry): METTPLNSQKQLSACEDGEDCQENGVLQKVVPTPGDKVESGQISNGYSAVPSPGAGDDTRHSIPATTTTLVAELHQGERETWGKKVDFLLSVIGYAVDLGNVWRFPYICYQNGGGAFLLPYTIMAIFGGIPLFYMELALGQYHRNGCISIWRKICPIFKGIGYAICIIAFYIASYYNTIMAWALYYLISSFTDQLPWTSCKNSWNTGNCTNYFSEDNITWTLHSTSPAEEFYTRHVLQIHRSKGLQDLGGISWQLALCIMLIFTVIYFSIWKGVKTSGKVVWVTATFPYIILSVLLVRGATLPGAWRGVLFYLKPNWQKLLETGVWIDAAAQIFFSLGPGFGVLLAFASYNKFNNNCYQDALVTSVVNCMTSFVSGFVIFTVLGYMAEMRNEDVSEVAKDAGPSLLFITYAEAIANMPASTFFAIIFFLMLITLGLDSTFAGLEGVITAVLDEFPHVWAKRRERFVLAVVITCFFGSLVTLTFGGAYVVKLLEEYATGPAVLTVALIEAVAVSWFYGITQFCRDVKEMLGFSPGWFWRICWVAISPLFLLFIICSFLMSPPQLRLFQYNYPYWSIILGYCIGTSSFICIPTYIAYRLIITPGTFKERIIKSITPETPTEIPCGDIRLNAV

[8] = molecular target: HRH1 (Histamine Receptor H1) (Homo sapiens, UniProt P35367); experiment: cell-based
Chain of HRH1 (Histamine Receptor H1) (P35367 whole entry): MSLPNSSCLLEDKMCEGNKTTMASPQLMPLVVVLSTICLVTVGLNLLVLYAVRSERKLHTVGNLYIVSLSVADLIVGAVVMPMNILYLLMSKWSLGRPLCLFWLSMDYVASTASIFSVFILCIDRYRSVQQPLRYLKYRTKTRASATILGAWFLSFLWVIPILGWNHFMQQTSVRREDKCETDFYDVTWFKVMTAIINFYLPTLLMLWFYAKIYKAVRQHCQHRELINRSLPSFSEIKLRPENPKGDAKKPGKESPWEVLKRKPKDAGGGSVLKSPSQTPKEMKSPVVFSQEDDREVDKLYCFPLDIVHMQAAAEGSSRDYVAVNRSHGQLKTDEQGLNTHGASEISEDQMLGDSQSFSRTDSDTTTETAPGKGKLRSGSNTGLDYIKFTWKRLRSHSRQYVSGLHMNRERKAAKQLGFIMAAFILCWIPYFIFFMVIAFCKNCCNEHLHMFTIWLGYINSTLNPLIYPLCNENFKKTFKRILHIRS

[9] = molecular target: ADORA2A (Adenosine Receptor A2A) (Homo sapiens, UniProt P29274); experiment: ADORA2A/Calcium Flux; format: cell-based
Chain of ADORA2A (Adenosine Receptor A2A) (P29274 whole entry): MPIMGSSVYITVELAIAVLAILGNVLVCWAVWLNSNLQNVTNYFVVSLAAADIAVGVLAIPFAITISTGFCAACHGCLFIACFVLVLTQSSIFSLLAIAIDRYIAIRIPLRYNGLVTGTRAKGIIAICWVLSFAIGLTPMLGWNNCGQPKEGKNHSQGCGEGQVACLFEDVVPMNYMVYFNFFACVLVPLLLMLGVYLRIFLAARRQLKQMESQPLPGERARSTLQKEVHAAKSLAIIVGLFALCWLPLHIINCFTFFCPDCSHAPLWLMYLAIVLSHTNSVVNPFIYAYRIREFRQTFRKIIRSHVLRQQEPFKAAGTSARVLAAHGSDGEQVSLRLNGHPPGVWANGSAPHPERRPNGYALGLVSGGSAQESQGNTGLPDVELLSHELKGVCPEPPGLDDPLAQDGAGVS

[10] = molecular target: T4, VEGFR2 (Vascular endothelial growth factor receptor 2 (KDR tyrosine kinase)) (Homo sapiens, UniProt P35968); experiment: biochemical; format: binding
T4 construct: made in house; host or cells: E. coli BL21-derived host (T7 phage) or HEK-293

[11] = molecular target: AR (Nuclear Hormone Androgen Receptor) (Homo sapiens, UniProt P10275); experiment: AR/NHR Nuclear Translocation; format: cell-based
KvLQT1/minK = molecular target: T5, KvLQT1/minK (Homo sapiens, UniProt P51787); experiment: KvLQT1/minK/Ion Channel; format: cell-based
T5 construct: expressed in transfected cells
T5 sequence (P51787 whole entry): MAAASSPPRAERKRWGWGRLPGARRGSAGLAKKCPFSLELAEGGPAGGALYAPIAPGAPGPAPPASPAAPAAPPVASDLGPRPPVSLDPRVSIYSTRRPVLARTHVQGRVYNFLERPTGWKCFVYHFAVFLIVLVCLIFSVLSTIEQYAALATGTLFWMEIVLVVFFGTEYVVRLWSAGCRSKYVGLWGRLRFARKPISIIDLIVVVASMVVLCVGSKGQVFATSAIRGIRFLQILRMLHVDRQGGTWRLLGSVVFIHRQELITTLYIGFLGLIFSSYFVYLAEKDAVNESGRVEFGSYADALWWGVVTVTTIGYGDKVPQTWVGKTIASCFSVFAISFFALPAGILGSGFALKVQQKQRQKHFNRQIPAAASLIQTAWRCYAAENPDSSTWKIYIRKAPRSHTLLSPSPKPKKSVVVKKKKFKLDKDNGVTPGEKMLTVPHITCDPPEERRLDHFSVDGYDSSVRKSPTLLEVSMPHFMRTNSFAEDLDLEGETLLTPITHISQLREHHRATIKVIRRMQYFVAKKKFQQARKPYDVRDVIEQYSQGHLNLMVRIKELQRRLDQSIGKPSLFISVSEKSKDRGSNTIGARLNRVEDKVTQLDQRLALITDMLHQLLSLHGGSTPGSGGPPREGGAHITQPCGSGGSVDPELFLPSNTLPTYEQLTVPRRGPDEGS

SMILES: CNC(C)Cc1ccc2ccsc2c1 (centres unmarked) [drawing 522]
- EC50 [1]: > 10 µM
- EC50 [2]: > 10 µM
- EC50 ([3]; agonist): > 10 µM
- EC50 ([3]; antagonist): 5.79 µM
- EC50 [4]: 0.684 µM
- EC50 [5]: > 10 µM and 4.44 µM
- EC50 ([6]; agonist): 0.959 µM
- EC50 ([6]; antagonist): 1.72 µM
- EC50 [7]: > 10 µM
- EC50 [8]: > 10 µM
- EC50 [9]: > 10 µM
- EC50 [10]: > 10 µM
- EC50 [11]: > 10 µM
- EC50 (KvLQT1/minK): > 10 µM
